Data published in patent US20140275201A1, “IDENTIFICATION OF CANCER STEM CELL MARKERS AND USE OF […] TO TREAT CANCER” (BOARD OF REGENTS, THE UNIVERSITY OF TEXAS SYSTEM, priority 2013, published 2014).

Columns and labels:
HMLER-FOXC2 cells [1] = test: Cell growth in monolayer cultures with sunitinib, HMLER-FOXC2; assay type: cell-based, human; conditions: sunitinib 10 μM (FIG. 7A), method says 2.5 μM, six days
Procedure: (§1) FIG. 7: Sunitinib inhibits the growth and metastasis of FOXC2-expressing tumors. FIG. 7A: Quantification of HMLER-Vector and HMLER-FOXC2 cell viability in the presence of sunitinib (10 μM) relative to vehicle (DMSO). N=3; error bars indicate SEM. *P<0.05. FIG. 7B: In vitro quantification of mammospheres formed by 1000 HMLER-FOXC2 and HMLER-Snail cells in the presence of sunitinib (10 μM) or DMSO. N=3; error bars indicate SEM. *P<0.05. FIG. 7C: Tumor volume of HMLER-FOXC2 cells injected into the mammary fat pad of NOD/SCID mice and treated with 40 mg/kg of sunitinib or vehicle (N=9) daily for the indicated number of days. Top line represents Vehicle; bottom line represents Sunitinib. […] FIGS. 7E and F: Thirty days following initiation of sunitinib or vehicle treatment, mice were euthanized and the organs, lung (FIG. 7E) and brain (FIG. 7F), were dissected and analyzed for metastatic tumor burden using bioluminescence imaging. The luminescent signal of tumor cells is represented as the total photon flux detected in each organ from individual mice with the bar indicating the average. ***P<0.001, **P<0.05 compared to the vehicle control group.
To determine the effects of sunitinib on cell growth, 2×10^5 cells were plated in a 6-well tissues culture dish. […] On the sixth day of treatment, viable cells per well was quantified using a Beckman-Coulter Vi-Cell Viability Analyzer.

HMLER-FOXC2 cells [2] = test: Mammosphere assay, HMLER-FOXC2; assay type: cell-based, human; conditions: HMLER-FOXC2, 1000 cells, sunitinib 10 μM, 7 days
Procedure: as §1
(§2) Mammosphere cultures were performed as described (Dontu et al., 2003), with the exception that culture medium contained 1% methylcellulose to reduce cell aggregation (Mani et al., 2008). […] Spheres were quantified after 7 days.

HMLER-Snail cells = test: Mammosphere assay, HMLER-Snail; assay type: cell-based, human; conditions: 1000 cells, sunitinib 10 μM, 7 days
Procedure: as §1, §2

[3] = system: HMLE-Snail and SUM159 cells expressing shControl or shFOXC2; test: MTS cell viability assay, cells expressing endogenous FOXC2; assay type: cell-based, human; conditions: cells expressing endogenous FOXC2 (shControl) versus shFOXC2, 96 hours, increasing concentrations
Procedure: (§3) FIGS. 12A and B: Quantification of HMLE-Snail (FIG. 12A) and SUM159 (FIG. 12B) cell viability expressing either shControl or shFOXC2, following culture for 96 hours in increasing concentrations of sunitinib. Cell viability was assessed using an MTS assay. Top lines represent shFOXC2; bottom lines represent shControl. FIG. 12C: In vitro quantification of mammospheres formed by cells described above grown in the presence of sunitinib. Data represents the number of mammospheres formed per 1000 cells seeded after 7 days of culture. For each cell type, the left column represents Vehicle and the right column represents Sunitinib. Error bars indicate SEM. *P<0.05.

[4] = system: HMLE-Snail and SUM159 cells expressing shControl or shFOXC2; test: Mammosphere assay, cells expressing endogenous FOXC2; assay type: cell-based, human; conditions: cells expressing endogenous FOXC2 (shControl) versus shFOXC2, 1000 cells seeded, 7 days
Procedure: as §3
Mammosphere cultures were performed as described (Dontu et al., 2003), with the exception that culture medium contained 1% methylcellulose to reduce cell aggregation (Mani et al., 2008). One thousand cells were plated per well into 96-well plates and cultured for 7-10 days, with fresh medium replaced every 3 days. Following incubation, mammospheres were photographed and spheres with a diameter greater than 75 μm were counted. To test the effects of sunitinib, 1000 cells were plated in 96-well low attachment plate in 100 μl mammosphere media. At 24 hours and 96 hours, 100 μl of mammosphere media containing 10 μM sunitinib or vehicle control (DMSO) was added to each well. Spheres were quantified after 7 days.

HMLER-FOXC2 tumors = test: Orthotopic HMLER-FOXC2 xenograft in the mammary fat-pad; assay type: in vivo, NOD/SCID mice
Procedure: FIG. 7: Sunitinib inhibits the growth and metastasis of FOXC2-expressing tumors. FIG. 7A: Quantification of HMLER-Vector and HMLER-FOXC2 cell viability in the presence of sunitinib (10 μM) relative to vehicle (DMSO). N=3; error bars indicate SEM. *P<0.05. FIG. 7B: In vitro quantification of mammospheres formed by 1000 HMLER-FOXC2 and HMLER-Snail cells in the presence of sunitinib (10 μM) or DMSO. N=3; error bars indicate SEM. *P<0.05. FIG. 7C: Tumor volume of HMLER-FOXC2 cells injected into the mammary fat pad of NOD/SCID mice and treated with 40 mg/kg of sunitinib or vehicle (N=9) daily for the indicated number of days. Top line represents Vehicle; bottom line represents Sunitinib. FIG. 7D: Event-free survival of mice with orthotopic HMLER-FOXC2 xenografts treated daily with sunitinib (40 mg/kg, N=7) or vehicle (N=10). Mice were euthanized once tumors reached 1.5 cm^3. Bottom line represents Vehicle; top line represents Sunitinib. FIGS. 7E and F: Thirty days following initiation of sunitinib or vehicle treatment, mice were euthanized and the organs, lung (FIG. 7E) and brain (FIG. 7F), were dissected and analyzed for metastatic tumor burden using bioluminescence imaging. The luminescent signal of tumor cells is represented as the total photon flux detected in each organ from individual mice with the bar indicating the average. ***P<0.001, **P<0.05 compared to the vehicle control group.
To ascertain the effects of sunitinib on HMLER-FOXC2 tumor growth and animal survival, 1×10^6 firefly luciferase-labeled HMLER-FOXC2 cells were injected into the mammary fat-pad of NOD/SCID mice as described above. After 24 hours, the mice were treated 5 days a week with 40 mg/kg sunitinib or vehicle (n=9) by oral gavage. Animals were sacrificed once the tumors reached 1.5 cm^3 or 30 days following injection and the dissected organs were immediately analyzed for luciferase activity.

Structure (SMILES): CCN(CC)CCNC(=O)c1c(C)[nH]c(/C=C2\C(=O)Nc3ccc(F)cc32)c1C [sunitinib]
- cell growth (cell viability relative to vehicle DMSO) (HMLER-FOXC2 cells [1]): specifically inhibit the cell growth
- decrease of mammosphere formation compared to vehicle (DMSO) treated cells (HMLER-FOXC2 cells [2]): > 8 fold
- decrease of mammosphere formation compared to vehicle (DMSO) treated cells (HMLER-Snail cells): > 20 fold
- sensitivity to sunitinib by MTS assay [3]: increased sensitivity
- sensitivity to sunitinib by reduction in mammosphere formation [4]: increased sensitivity
- primary tumor growth (tumor volume) (HMLER-FOXC2 tumors; 40 mg/kg sunitinib by oral gavage versus vehicle, NOD/SCID mice): reduced primary tumor growth
- metastatic burden in brain (photon counts, bioluminescence) (HMLER-FOXC2 tumors; 40 mg/kg sunitinib oral versus vehicle, thirty days after start of treatment, dissected brain): significantly reduced metastatic burden
- metastatic burden in lungs (photon counts, bioluminescence) (HMLER-FOXC2 tumors; 40 mg/kg sunitinib oral versus vehicle, thirty days after start of treatment, dissected lungs): significantly reduced metastatic burden
- event-free survival (HMLER-FOXC2 tumors; 40 mg/kg sunitinib oral versus vehicle, mice euthanized once tumors reached 1.5 cm^3): extended event-free survival
